# Experimental data as given in ChEMBL document CHEMBL1201862, “PubChem BioAssay data set” (2004).
# Calls of active or inactive are those of the source.
# Legend:
# [1] = molecular target: T1, Heat shock factor protein 1 (Mus musculus, UniProt P38532); test: inhibition of MG132-induced HSE-luciferase signal, confirmation, cell-based, NIH3T3, luminescence, dose retest (AID 2382); format: functional;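 note: NIH3T3 fibroblasts with HSF1-driven luciferase reporter stressed by proteasome inhibitor MG132; luminescence from HSF1-driven luciferase expression after 8 hours of MG132 stress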
# T1 sequence (P38532 whole entry): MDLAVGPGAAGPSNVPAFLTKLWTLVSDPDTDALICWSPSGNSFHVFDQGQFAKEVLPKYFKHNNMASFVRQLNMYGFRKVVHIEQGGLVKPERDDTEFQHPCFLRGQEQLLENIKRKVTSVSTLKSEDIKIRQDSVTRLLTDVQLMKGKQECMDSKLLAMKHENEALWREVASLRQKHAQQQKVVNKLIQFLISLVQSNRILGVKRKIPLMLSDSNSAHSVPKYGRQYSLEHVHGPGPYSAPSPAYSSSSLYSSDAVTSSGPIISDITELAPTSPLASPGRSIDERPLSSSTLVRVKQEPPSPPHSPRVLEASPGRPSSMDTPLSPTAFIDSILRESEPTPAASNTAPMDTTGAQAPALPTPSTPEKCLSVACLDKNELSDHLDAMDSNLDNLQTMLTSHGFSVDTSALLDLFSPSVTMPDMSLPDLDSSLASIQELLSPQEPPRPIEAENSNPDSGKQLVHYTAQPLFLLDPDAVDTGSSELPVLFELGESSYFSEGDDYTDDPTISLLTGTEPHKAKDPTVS
# [2] = molecular target: T2, Microphthalmia-associated transcription factor (Homo sapiens, UniProt O75030); test: TRPM1 promoter luciferase signal decrease, dose response, MITF inhibitor project, cell-based, SK-MEL-5, cherry-picked, set 3 (AID 493073); format: functional
# T2 sequence (O75030 whole entry): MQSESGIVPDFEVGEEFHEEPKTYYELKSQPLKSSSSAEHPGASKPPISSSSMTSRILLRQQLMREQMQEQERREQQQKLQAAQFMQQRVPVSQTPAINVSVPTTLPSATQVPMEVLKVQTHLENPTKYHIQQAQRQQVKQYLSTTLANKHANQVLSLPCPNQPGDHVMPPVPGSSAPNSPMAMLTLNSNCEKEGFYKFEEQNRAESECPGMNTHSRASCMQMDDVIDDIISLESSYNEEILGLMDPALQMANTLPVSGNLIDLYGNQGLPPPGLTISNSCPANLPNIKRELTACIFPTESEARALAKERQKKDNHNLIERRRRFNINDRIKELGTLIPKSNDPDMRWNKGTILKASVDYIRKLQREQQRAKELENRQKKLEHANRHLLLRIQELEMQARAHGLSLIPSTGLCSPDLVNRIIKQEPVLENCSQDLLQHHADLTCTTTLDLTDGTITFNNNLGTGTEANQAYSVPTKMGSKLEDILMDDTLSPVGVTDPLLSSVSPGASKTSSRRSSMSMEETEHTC
# Protein skinhead-1 = molecular target: T3, Protein skinhead-1 (Caenorhabditis elegans, UniProt P34707); format: functional
# T3 sequence (P34707 whole entry): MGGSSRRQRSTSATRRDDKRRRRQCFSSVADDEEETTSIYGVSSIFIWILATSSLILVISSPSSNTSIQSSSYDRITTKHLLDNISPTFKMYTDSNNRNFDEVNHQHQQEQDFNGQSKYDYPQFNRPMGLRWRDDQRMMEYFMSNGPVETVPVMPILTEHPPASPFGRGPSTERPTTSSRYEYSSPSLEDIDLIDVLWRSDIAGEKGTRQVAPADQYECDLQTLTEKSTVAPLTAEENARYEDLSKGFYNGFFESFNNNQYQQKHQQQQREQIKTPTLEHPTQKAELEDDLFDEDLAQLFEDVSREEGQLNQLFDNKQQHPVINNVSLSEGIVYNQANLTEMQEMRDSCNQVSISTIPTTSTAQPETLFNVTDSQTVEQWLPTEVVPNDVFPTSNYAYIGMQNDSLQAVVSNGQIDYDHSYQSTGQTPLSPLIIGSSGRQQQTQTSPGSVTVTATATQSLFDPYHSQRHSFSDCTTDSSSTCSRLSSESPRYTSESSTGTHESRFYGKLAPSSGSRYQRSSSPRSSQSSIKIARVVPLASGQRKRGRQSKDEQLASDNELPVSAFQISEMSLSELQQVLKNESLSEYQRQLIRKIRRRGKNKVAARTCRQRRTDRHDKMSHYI
# [3] = microbe, parasite or virus in culture; format: functional; details: Mycobacterium tuberculosis
# [4] = molecular target: T4, Calpain-2 catalytic subunit (Sus scrofa, UniProt P43367); test: pig calpain II inhibitor potency, dose response, biochemical, fluorogenic peptide substrate (AID 1420); format: functional
# T4 sequence (P43367 whole entry): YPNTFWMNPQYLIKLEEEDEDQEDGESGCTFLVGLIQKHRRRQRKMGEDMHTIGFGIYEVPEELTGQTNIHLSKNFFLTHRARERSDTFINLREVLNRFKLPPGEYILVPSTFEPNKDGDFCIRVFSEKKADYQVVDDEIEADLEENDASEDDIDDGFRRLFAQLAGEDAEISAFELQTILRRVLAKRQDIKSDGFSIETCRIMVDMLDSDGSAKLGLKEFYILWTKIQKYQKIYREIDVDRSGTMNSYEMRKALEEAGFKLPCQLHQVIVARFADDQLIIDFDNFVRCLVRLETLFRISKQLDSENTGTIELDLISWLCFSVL
# Cytochrome P450 2C9 = Cytochrome P450 2C9 (Homo sapiens, UniProt P11712)
# Sequence of Cytochrome P450 2C9 (P11712 whole entry): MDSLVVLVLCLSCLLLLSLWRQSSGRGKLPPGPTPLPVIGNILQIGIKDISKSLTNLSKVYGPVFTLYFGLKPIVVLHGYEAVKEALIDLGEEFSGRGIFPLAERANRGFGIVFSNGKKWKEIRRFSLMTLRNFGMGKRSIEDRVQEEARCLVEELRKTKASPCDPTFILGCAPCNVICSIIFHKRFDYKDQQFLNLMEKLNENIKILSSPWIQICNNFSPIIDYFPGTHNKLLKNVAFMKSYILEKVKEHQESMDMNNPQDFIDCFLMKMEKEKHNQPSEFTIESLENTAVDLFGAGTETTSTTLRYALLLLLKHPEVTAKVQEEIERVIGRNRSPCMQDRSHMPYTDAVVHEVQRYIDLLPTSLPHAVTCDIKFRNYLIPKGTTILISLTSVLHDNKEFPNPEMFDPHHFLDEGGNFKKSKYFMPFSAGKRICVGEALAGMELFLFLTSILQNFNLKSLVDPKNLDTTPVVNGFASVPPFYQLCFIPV
# H9c2 = test: cells; format: functional, cell-based; details: Rattus norvegicus, H9c2, Myocardium;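 note: confirmatory concentration-response retest of ultra-high-throughput screening hits for modulation of myocardial damage; cell death induced by hydrogen peroxide oxidative stress; compound pretreatment for 60 min then peroxide exposure for 2 h; potency is for protecting the cells against peroxide damage rather than for killing them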
# Cytochrome P450 2D6 = Cytochrome P450 2D6 (Homo sapiens, UniProt P10635);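 note: CYP2D6 member of a cytochrome P450 panel assay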
# Sequence of Cytochrome P450 2D6 (P10635 whole entry): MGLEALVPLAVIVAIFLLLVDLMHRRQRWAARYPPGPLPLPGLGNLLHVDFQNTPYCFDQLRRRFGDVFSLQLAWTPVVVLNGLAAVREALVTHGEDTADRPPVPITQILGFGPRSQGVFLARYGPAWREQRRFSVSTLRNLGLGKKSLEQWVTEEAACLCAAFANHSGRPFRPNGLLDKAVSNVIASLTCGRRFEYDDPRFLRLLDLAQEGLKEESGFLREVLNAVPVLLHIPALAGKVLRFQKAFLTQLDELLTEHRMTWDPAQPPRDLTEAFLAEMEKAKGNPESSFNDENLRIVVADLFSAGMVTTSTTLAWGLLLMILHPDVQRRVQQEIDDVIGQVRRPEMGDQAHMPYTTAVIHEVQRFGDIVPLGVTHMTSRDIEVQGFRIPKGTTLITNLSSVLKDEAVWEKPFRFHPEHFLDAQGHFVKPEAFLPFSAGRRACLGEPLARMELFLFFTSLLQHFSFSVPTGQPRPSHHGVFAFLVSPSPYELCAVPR
# Cytochrome P450 2C19 = Cytochrome P450 2C19 (Homo sapiens, UniProt P33261); test: Cytochrome panel assay with activity outcomes. Panel member name: p450-cyp2c19 Compounds with AC50 equal or less than 10 uM are considered active; format: functional; details: read-out: AC50
# Sequence of Cytochrome P450 2C19 (P33261 whole entry): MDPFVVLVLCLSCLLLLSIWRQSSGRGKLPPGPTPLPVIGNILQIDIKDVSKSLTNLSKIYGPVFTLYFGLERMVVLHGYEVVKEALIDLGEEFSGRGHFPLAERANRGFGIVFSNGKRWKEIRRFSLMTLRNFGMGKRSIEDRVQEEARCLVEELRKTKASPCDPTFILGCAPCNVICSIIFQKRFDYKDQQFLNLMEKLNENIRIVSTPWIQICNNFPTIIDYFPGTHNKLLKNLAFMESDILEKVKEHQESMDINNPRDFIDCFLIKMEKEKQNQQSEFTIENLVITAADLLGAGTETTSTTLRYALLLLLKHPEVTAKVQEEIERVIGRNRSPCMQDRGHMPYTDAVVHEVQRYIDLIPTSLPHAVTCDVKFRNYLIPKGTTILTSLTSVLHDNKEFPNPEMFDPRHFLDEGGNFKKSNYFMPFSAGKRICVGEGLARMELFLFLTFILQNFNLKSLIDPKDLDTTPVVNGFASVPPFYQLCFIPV
# BJ [5] = test: cytotoxicity toward BJ-TERT fibroblasts, dose response, cell-based, RAS-independent, luminescence (AID 1933); format: functional; details: Homo sapiens
# BJ [6] = test: cells; format: functional, cell-based; details: Homo sapiens
# BJ [7] = test: cytotoxicity toward BJ-TERT-LT-ST fibroblasts, dose response, cell-based, RAS-independent, luminescence (AID 1935); format: functional; details: Homo sapiens;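 note: BJ fibroblasts immortalized with TERT plus LT and ST oncogenes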
# [8] = cytotoxicity toward DRD oncogenic fibroblasts, dose response, cell-based, non-viral oncogenic, luminescence (AID 1934); format: functional; details: Homo sapiens
# Paired box protein Pax-8 = Paired box protein Pax-8 (Homo sapiens, UniProt Q06710); test: inhibitors of PAX8-driven TPO luciferase reporter, dose response, RMG-I cells, cherry-pick (AID 687027); format: functional, cell-based;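 note: luciferase reporter driven by Pax8 target thyroperoxidase promoter measured by SteadyGlo luminescence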
# Sequence of Paired box protein Pax-8 (Q06710 whole entry): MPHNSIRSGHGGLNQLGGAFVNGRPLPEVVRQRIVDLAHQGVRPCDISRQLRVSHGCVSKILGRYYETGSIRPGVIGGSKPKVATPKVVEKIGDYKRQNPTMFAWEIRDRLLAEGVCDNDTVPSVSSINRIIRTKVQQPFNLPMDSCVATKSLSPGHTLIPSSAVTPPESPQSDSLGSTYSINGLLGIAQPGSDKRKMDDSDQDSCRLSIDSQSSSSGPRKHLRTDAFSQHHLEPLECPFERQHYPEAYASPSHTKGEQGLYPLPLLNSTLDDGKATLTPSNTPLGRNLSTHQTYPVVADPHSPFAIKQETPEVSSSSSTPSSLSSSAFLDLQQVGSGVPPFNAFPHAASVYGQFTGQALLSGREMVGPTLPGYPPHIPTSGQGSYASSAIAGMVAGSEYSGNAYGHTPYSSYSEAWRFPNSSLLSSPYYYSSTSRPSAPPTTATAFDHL
# INS1 = test: beta cell apoptosis inhibitors, cytokine rescue, dose response, luminescence, retest (AID 449756); format: functional, cell-based; details: Rattus norvegicus;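 note: cell death triggered by IL-1 beta plus TNF-alpha plus IFN-gamma mixture; protective hits raise ATP signal compared with cytokine alone wells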
# [9] = inhibitors of intracellular T. cruzi replication, confirmation, NIH3T3 host cells, beta-gal luminescence (AID 2044); format: functional, cell-based;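 note: intracellular parasites grown in NIH/3T3 mouse fibroblasts as host cells; luminescent beta-galactosidase reporter signal from transgenic T. cruzi replicating inside host cells; inhibitors lower the luminescence signal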
# [10] = cytotoxicity toward NIH3T3 fibroblasts, dose response, counter-screen, cell-based, ATP luminescence, mouse fibroblasts (AID 2010); format: functional;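 note: cells exposed to compound for about 90 hours before reading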
# [11] = molecular target: T5, Corticotropin-releasing factor receptor 2/Corticotropin-releasing factor-binding protein (Homo sapiens, UniProt P24387+Q13324); test: activators of CRF receptor 2 with binding protein – uHTS hits, confirmation (AID 602473); format: functional; details: read-out: EC50_Mean
# T5 sequence (Q13324 whole entry): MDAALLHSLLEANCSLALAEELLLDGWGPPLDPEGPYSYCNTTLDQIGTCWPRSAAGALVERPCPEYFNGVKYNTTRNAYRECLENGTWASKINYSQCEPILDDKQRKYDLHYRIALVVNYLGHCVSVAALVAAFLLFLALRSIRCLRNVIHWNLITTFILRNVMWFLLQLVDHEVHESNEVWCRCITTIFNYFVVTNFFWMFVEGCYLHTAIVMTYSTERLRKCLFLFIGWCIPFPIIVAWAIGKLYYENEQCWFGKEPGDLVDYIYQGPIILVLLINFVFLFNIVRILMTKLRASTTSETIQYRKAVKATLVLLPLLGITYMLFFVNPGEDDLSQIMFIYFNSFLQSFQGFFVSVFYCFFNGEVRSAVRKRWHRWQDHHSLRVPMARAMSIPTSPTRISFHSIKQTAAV
# T5 sequence (P24387 whole entry): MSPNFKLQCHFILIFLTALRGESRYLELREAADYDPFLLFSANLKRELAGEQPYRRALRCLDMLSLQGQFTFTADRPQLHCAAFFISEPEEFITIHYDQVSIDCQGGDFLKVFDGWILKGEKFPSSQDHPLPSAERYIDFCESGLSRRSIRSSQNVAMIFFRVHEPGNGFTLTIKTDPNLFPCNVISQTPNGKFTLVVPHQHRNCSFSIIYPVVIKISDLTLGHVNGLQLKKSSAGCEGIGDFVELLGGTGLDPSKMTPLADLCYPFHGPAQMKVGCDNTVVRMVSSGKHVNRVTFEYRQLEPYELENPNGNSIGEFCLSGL
smiles,measurement,setting,value
CC1(C)Cc2c(sc(NC(=O)c3ccc4ncsc4c3)c2C(N)=O)C(C)(C)N1,EC50,[1],> 195 µM (not active)
same,AC50,[2],10.1 µM (active)
Cc1cc(F)ccc1S(=O)(=O)N1CCCOC1CNC(=O)C(=O)NCc1ccc2c(c1)OCO2 (stereo not drawn),IC50,Protein skinhead-1,> 100 µM (inactive)
C/C(=N\NC(=N)SC1CC(=O)N(c2ccc(Cl)cc2)C1=O)c1cccs1 (stereo not drawn),CC50,[3],> 40 µM (active)
CCOc1ccc(NC(=O)CCN2CCN(C)CC2)cc1,IC50,Protein skinhead-1,> 100 µM (inactive)
Cc1cc(C(F)(F)F)n2ncc(-c3ccc(F)cc3)c2n1,IC50,Protein skinhead-1,> 100 µM (inactive)
CCOc1ccc(Oc2ccc(-c3nnc(-c4ccccc4)o3)cc2[N+](=O)[O-])cc1,IC50,[4],4.33 µM (not active)
CCOc1ccc(-n2c(O)nnc2SCC(=O)Nc2ccccc2C)cc1,AC50,Cytochrome P450 2C9,inconclusive
O=C(NC1CCCCC1)C(c1ccc2ncccc2c1)N(Cc1ccco1)C(=O)c1ccc2c(c1)OCCO2 (stereo not drawn),CC50,[3],> 40 µM (active)
same,IC50,H9c2,12.6 µM (active)
Cc1c(C)n(C)c2ccc(C(=O)Nc3cccc4ccccc34)cc12,AC50,Cytochrome P450 2D6,11.2 µM (inconclusive)
same,AC50,Cytochrome P450 2C9,inconclusive
CCn1nc(C(=O)OCC(=O)N2c3ccccc3CC2C)c2ccccc2c1=O (stereo not drawn),IC50,[4],29.2 µM (not active)
Cc1ccc(-c2noc(C3CCCN(C(=O)c4ccc(C(C)(C)C)cc4)C3)n2)o1 (stereo not drawn),CC50,[3],> 40 µM (active)
CCOC(=O)C1=NOC(CNC(=O)C2=NOC(CNC(=O)c3c(-c4ccccc4Cl)noc3C)C2)C1 (stereo not drawn),AC50,Cytochrome P450 2C19,20 µM (inconclusive)
same,AC50,Cytochrome P450 2C9,inconclusive
CCOc1cc(C)c(S(=O)(=O)NC2CCCCC2)cc1C,EC50,[1],> 195 µM (not active)
same,IC50,[4],> 50 µM (not active)
COc1cc2c(c(OC)c1OC)-c1ccc(OC)c(=O)cc1C(NC(C)=O)CC2 (stereo not drawn),EC50,BJ [5],0.348 µM (active)
same,EC50,BJ [6],0.627 µM (inconclusive)
same,EC50,BJ [7],0.249 µM (active)
same,EC50,[8],0.351 µM (active)
same,AC50,[2],0.056 µM (active)
same,AC50,Paired box protein Pax-8,< 0.26 µM (active)
Cc1cc(C(C)(C)C)cc(C)c1C[n+]1c2n(c3ccc(C(F)(F)F)cc31)CCCCC2,AC50,[2],7.55 µM (active)
same,AC50,INS1,3.43 µM (active)
same,AC50,Paired box protein Pax-8,4.37 µM (active)
c1ccc(-n2nnc(-c3nccs3)n2)cc1,IC50,Protein skinhead-1,88.2 µM (inactive)
CCN(CC)C(=O)c1cc([N+](=O)[O-])cc2c1-c1ccc([N+](=O)[O-])cc1C2=C(C#N)C#N,CC50,[3],> 40 µM (active)
same,AC50,INS1,6.32 µM (active)
O=C(c1cccc(F)c1)N1CCN(c2cccc(C(F)(F)F)c2)CC1,IC50,Protein skinhead-1,> 100 µM (inactive)
Cn1nnnc1SCC(=O)NC1CCCCC1,IC50,[4],< 0.4 µM (not active)
C=CCSc1nc(NC)c2sccc2n1,AC50,Cytochrome P450 2C9,inconclusive
COc1ccc(CNC(=O)C2CC(c3cccc([N+](=O)[O-])c3)=NO2)cc1 (stereo not drawn),AC50,Cytochrome P450 2C9,inconclusive
O=C1c2ccccc2C(=O)N1CCc1nc(-c2ccc(Cl)cc2)no1,IC50,Protein skinhead-1,94.6 µM (inactive)
CCCc1nc(SCC(=O)N2CCCc3ccccc32)c2c(=O)n(C)c(=O)n(C)c2n1,IC50,[4],16.7 µM (not active)
COc1ccccc1CNC(=O)C1CCN(S(=O)(=O)N2CC(C)CC(C)C2)CC1 (stereo not drawn),AC50,Cytochrome P450 2C19,39.8 µM (inconclusive)
same,AC50,Cytochrome P450 2C9,inconclusive
Cc1ccc(S(=O)(=O)n2ccc3c(OCCOCCNCc4ccc(F)cc4)cccc32)cc1,EC50,[9],0.226 µM (active)
same,CC50,[3],13.3 µM (active)
same,EC50,[10],> 30 µM (not active)
O=C(CN1CCC(n2nnc3cc(C(F)(F)F)ccc32)CC1)NCc1cccs1,CC50,[3],> 40 µM (active)
COCCn1c(SCC(=O)Nc2cccc(C)c2)nnc1C(C)C,IC50,Protein skinhead-1,> 100 µM (inactive)
FC(F)(F)c1cccc(NCc2nnc(S)n2C2CCCCC2)c1,IC50,[4],27.8 µM (not active)
COc1ccc(N2CCN(c3nc(NC(C)(C)C)nc(N4CCCCC4)n3)CC2)cc1,IC50,[4],24.4 µM (not active)
Cc1cc2c(C(F)(F)F)cc(=O)oc2c2c1NCCC2,AC50,Cytochrome P450 2C19,1.26 µM (inconclusive)
same,EC50,[11],1.12 µM (active)
same,AC50,Cytochrome P450 2C9,inconclusive
